In assay [1] the test system is CDK8 (TCF/LEF luciferase reporter in HCT116 cells). As to the kind of experiment: Cell based TCF/LEF reporter assay (HCT116+TCF/LEF luciferase). The settings on record: Homo sapiens, HCT-116, 24 h. The text has this:
Determine Inhibitor Activity Against CDK8 in Cell Based TCF/LEF Reporter Assay
The colorectal carcinoma cell line HCT116 was stably transduced with lentivirus encoding the TCF/LEF promoter upstream of a luciferase reporter gene (Qiagen) and single cell clones expressing this construct (referred to as HCT116+TCF/LEF) were isolated. HCT116 express endogenous mutant β-catenin^3, resulting in up-regulation of transcription through the TCF/LEF promoter. Expression of the TCF/LEF reporter construct in HCT116 results in constitutive expression of luciferase. Treatment of the cells with inhibitors of components of the β-catenin signaling pathway (such as CDK8) results in decreased expression of luciferase. The assay is performed as follows. The HCT116+TCF/LEF cell line is seeded in a 96 well plate in 50 μL of culture media at 1×10^4 cells/well and incubated at 37° C. overnight. Serial dilutions of compounds (in total volume of 50 μL culture media) are added to the cells and incubated at 37° C. for 24 hours. 4 wells of DMSO treated cells serve as high controls and cells treated with 10 uM of the reference compound CCT251545 (a known CDK8 inhibitor)^4 serve as low controls. The viability of the cells is assayed by the addition of […] reagent (Promega) followed by 30 minute incubation at 37° C. and quantification of the fluorescent signal (Ex400/Em505). The luciferase expression is then assayed by the addition of 25 μL ONE-Glo reagent (Promega) followed by 10 minute incubation at room temperature and quantification of the luminescence signal. The luminescence signal is normalized to the fluorescence signal to correct for any loss in cell viability over the 24 hour compound incubation period. The percentage inhibition at individual concentrations relative to high and low controls is calculated. The data are analyzed by using nonlinear regression to generate IC50 values.
(In a reporter assay the amount or activity of a reporter protein is the signal.)

For assay [2], the system named is CDK8 (phosphorylation of STAT1 at serine 727 in A549 cells). Briefly: Cell based Phospho-STAT1 assay (IFNγ-stimulated A549 cells, AlphaLISA). The settings on record: Homo sapiens, A549, A549 cells, phospho-STAT1 after IFNγ stimulation. A digest of the protocol: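 A549 cells given serial compound dilutions for 1 h at 37 °C, then stimulated with IFNγ at 10 ng/mL final for 30 min. Lysate STAT1 Ser727 phosphorylation measured by AlphaLISA; % inhibition vs stimulated/unstimulated DMSO controls, IC50 by nonlinear regression.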
In general terms: Alpha assays give light when donor and acceptor beads are brought close together.

pIC50: −log10 of the molar value.

These results are taken from patent US10703757B2, “Compounds and methods for CDK8 modulation and indications therefor” (Plexxikon Inc., priority 2016, dated 2020).

What is called pIC50 is the negative decadic logarithm of the IC50, by convention in mol/L. High values mean a low IC50, low ones a high IC50.

For `Cc1cc(-c2cnn3ccnc(C4CCC(C#N)CC4)c23)ccc1-c1cnn(CC(C)(C)O)c1` (stereo not drawn) [Compound P-0025, (1s,4s)-4-(3-(4-(1-(2-hydroxy-2-methylpropyl)-1H-pyrazol-4-yl)-3-methylphenyl)pyrazolo[1,5-a]pyrazin-4-yl)cyclohexane-1-carbonitrile], the negative-log IC50 (pIC50) in assay [1] and in assay [2] was 7.00 to 10.00 each time.

Take `N#CC1CC=C(c2nccn3ncc(-c4ccc(-c5cnn(CC(N)=O)c5)cc4)c23)CC1` (stereo not drawn) [Compound P-0027, 2-(4-(4-(4-(4-cyanocyclohex-1-en-1-yl)pyrazolo[1,5-a]pyrazin-3-yl)phenyl)-1H-pyrazol-1-yl)acetamide]: the pIC50 in assay [1] and in assay [2] was 7.00 to 10.00 throughout.

`CS(=O)(=O)Cn1cc(-c2ccc(-c3cnn4ccnc(C5=CCC(C#N)CC5)c34)cc2)cn1` (stereo not drawn) [Compound P-0028, 4-(3-(4-(1-((methylsulfonyl)methyl)-1H-pyrazol-4-yl)phenyl)pyrazolo[1,5-a]pyrazin-4-yl)cyclohex-3-ene-1-carbonitrile]: the pIC50 in assay [1] and in assay [2] was 7.00 to 10.00 throughout.

As to `N#CC1CC=C(c2nccn3ncc(-c4ccc(-c5cnn(CC(F)F)c5)cc4)c23)CC1` (stereo not drawn) [Compound P-0029, 4-(3-(4-(1-(2,2-difluoroethyl)-1H-pyrazol-4-yl)phenyl)pyrazolo[1,5-a]pyrazin-4-yl)cyclohex-3-ene-1-carbonitrile], the pIC50 in assay [1] and in assay [2] was 7.00 to 10.00 each time.

Regarding `N#CCCn1cc(-c2ccc(-c3cnn4ccnc(C5=CCC(C#N)CC5)c34)cc2F)cn1` (stereo not drawn) [Compound P-0030, 4-(3-(4-(1-(2-cyanoethyl)-1H-pyrazol-4-yl)-3-fluorophenyl)pyrazolo[1,5-a]pyrazin-4-yl)cyclohex-3-ene-1-carbonitrile], the pIC50 in assay [1] and in assay [2] was 7.00 to 10.00 in each case.

As for `CC(C)(O)Cn1cc(-c2ccc(-c3cnn4ccnc(C5CCC(C#N)CC5)c34)cc2Cl)cn1` (stereo not drawn) [Compound P-0031, (1s,4s)-4-(3-(3-chloro-4-(1-(2-hydroxy-2-methylpropyl)-1H-pyrazol-4-yl)phenyl)pyrazolo[1,5-a]pyrazin-4-yl)cyclohexane-1-carbonitrile], the pIC50 in assay [1] and in assay [2] was 7.00 to 10.00 throughout.

Take `CC(C)(O)Cn1cc(-c2ccc(-c3cnn4ccnc(C5CCC(C#N)CC5)c34)cc2F)cn1` (stereo not drawn) [Compound P-0032, (1s,4s)-4-(3-(3-fluoro-4-(1-(2-hydroxy-2-methylpropyl)-1H-pyrazol-4-yl)phenyl)pyrazolo[1,5-a]pyrazin-4-yl)cyclohexane-1-carbonitrile]: the pIC50 in assay [1] and in assay [2] was 7.00 to 10.00 throughout.

`CS(=O)(=O)CCn1cc(-c2ccc(-c3cnn4ccnc(C5=CCC(C#N)CC5)c34)cc2)cn1` (stereo not drawn) [Compound P-0033, 4-(3-(4-(1-(2-(methylsulfonyl)ethyl)-1H-pyrazol-4-yl)phenyl)pyrazolo[1,5-a]pyrazin-4-yl)cyclohex-3-ene-1-carbonitrile]: the pIC50 in assay [1] and in assay [2] was 7.00 to 10.00 in each case.

`N#CC1CC=C(c2nccn3ncc(-c4ccc(-c5cnn(CC6CC6)c5)cc4)c23)CC1` (stereo not drawn) [Compound P-0034, 4-(3-(4-(1-(cyclopropylmethyl)-1H-pyrazol-4-yl)phenyl)pyrazolo[1,5-a]pyrazin-4-yl)cyclohex-3-ene-1-carbonitrile]: the pIC50 in assay [1] and in assay [2] was 7.00 to 10.00 throughout.

Regarding `CC(C)Cn1cc(-c2ccc(-c3cnn4ccnc(C5=CCC(C#N)CC5)c34)cc2)cn1` (stereo not drawn) [Compound P-0035, 4-(3-(4-(1-isobutyl-1H-pyrazol-4-yl)phenyl)pyrazolo[1,5-a]pyrazin-4-yl)cyclohex-3-ene-1-carbonitrile], the pIC50 in assay [1] and in assay [2] was 7.00 to 10.00 each time.

With `N#CC1CC=C(c2nccn3ncc(-c4ccc(-c5cnn(CCF)c5)cc4)c23)CC1` (stereo not drawn) [Compound P-0036, 4-(3-(4-(1-(2-fluoroethyl)-1H-pyrazol-4-yl)phenyl)pyrazolo[1,5-a]pyrazin-4-yl)cyclohex-3-ene-1-carbonitrile], the pIC50 in assay [1] and in assay [2] was 7.00 to 10.00 throughout.

With `N#CC1CC=C(c2nccn3ncc(-c4ccc(OCC5CC5)c(Cl)c4)c23)CC1` (stereo not drawn) [Compound P-0038, 4-(3-(3-chloro-4-(cyclopropyl-methoxy)phenyl)pyrazolo[1,5-a]pyrazin-4-yl)cyclohex-3-ene-1-carbonitrile], the pIC50 in assay [1] and in assay [2] was 7.00 to 10.00 in each case.

For `N#CC1CC=C(c2nccn3ncc(-c4ccc(OCc5ccccc5)c(F)c4)c23)CC1` (stereo not drawn) [Compound P-0039, 4-(3-(4-(benzyloxy)-3-fluorophenyl)pyrazolo[1,5-a]pyrazin-4-yl)cyclohex-3-ene-1-carbonitrile], the pIC50 in assay [1] and in assay [2] was 6.00 to 7.00 throughout.

In the case of `CC(C)(O)c1ccc(-c2cnn3ccnc(C4=CCC(C#N)CC4)c23)cc1` (stereo not drawn) [Compound P-0040, 4-(3-(4-(2-hydroxypropan-2-yl)phenyl)pyrazolo[1,5-a]pyrazin-4-yl)cyclohex-3-ene-1-carbonitrile], the pIC50 in assay [1] and in assay [2] was 7.00 to 10.00 throughout.

On to `COc1ccc(-c2cnn3ccnc(C4=CCC(C#N)CC4)c23)cc1Cl` (stereo not drawn) [Compound P-0041, 4-(3-(3-chloro-4-methoxyphenyl)pyrazolo[1,5-a]pyrazin-4-yl)cyclohex-3-ene-1-carbonitrile], for which the negative-log IC50 (pIC50) in assay [1] and in assay [2] was 7.00 to 10.00 each time.

For the compound `CC(C)(O)Cn1cc(-c2ccc(-c3cnn4ccnc(C5=CCC(C#N)CC5)c34)cc2Cl)cn1` (stereo not drawn) [Compound P-0042, 4-(3-(3-chloro-4-(1-(2-hydroxy-2-methylpropyl)-1H-pyrazol-4-yl)phenyl)pyrazolo[1,5-a]pyrazin-4-yl)cyclohex-3-ene-1-carbonitrile], the negative logarithm of the IC50 (pIC50) in assay [1] and in assay [2] was 7.00 to 10.00 each time.

Take `CS(=O)(=O)Nc1ccc(-c2cnn3ccnc(C4=CCC(C#N)CC4)c23)cc1` (stereo not drawn) [Compound P-0045, N-(4-(4-(4-cyanocyclohex-1-en-1-yl)pyrazolo[1,5-a]pyrazin-3-yl)phenyl)methanesulfonamide]: the pIC50 in assay [1] was 7.00 to 10.00; in assay [2] it was 6.00 to 7.00.

For the compound `CC(C)(C#N)Cn1cc(-c2ccc(-c3cnn4ccnc(C5CCC(C#N)CC5)c34)cc2)cn1` (stereo not drawn) [Compound P-0046, (1s,4s)-4-(3-(4-(1-(2-cyano-2-methylpropyl)-1H-pyrazol-4-yl)phenyl)pyrazolo[1,5-a]pyrazin-4-yl)cyclohexane-1-carbonitrile], the pIC50 in assay [1] and in assay [2] was 7.00 to 10.00 each time.

As for `CN(C)CCn1cc(-c2ccc(-c3cnn4ccnc(C5=CCC(C#N)CC5)c34)cc2)cn1` (stereo not drawn) [Compound P-0047, 4-[3-[4-[1-(2-dimethylaminoethyl)pyrazol-4-yl]phenyl]pyrazolo[1,5-a]pyrazin-4-yl]cyclohex-3-ene-1-carbonitrile], the pIC50 in assay [1] and in assay [2] was 7.00 to 10.00 each time.

With `CC(C)(C#N)Cn1cc(-c2ccc(-c3cnn4ccnc(C5=CCC(C#N)CC5)c34)cc2)cn1` (stereo not drawn) [Compound P-0048, 4-(3-(4-(1-(2-cyano-2-methylpropyl)-1H-pyrazol-4-yl)phenyl)pyrazolo[1,5-a]pyrazin-4-yl)cyclohex-3-ene-1-carbonitrile], the negative-log IC50 (pIC50) in assay [1] and in assay [2] was 7.00 to 10.00 throughout.

For the compound `N#CC1CC=C(c2nccn3ncc(-c4ccc(-c5cnn(CCN6CCCC6)c5)cc4)c23)CC1` (stereo not drawn) [Compound P-0049, 4-(3-(4-(1-(2-(pyrrolidin-1-yl)ethyl)-1H-pyrazol-4-yl)phenyl)pyrazolo[1,5-a]pyrazin-4-yl)cyclohex-3-ene-1-carbonitrile], the negative logarithm of the IC50 (pIC50) in assay [1] and in assay [2] was 7.00 to 10.00 each time.

Take `N#CC1CCC(c2nccn3ncc(-c4ccc(-c5cnn(CC6(C#N)CC6)c5)cc4)c23)CC1` (stereo not drawn) [Compound P-0050, (1s,4s)-4-(3-(4-(1-((1-cyanocyclopropyl)methyl)-1H-pyrazol-4-yl)phenyl)pyrazolo[1,5-a]pyrazin-4-yl)cyclohexane-1-carbonitrile]: the pIC50 in assay [1] and in assay [2] was 7.00 to 10.00 in each case.

Take `N#CC1CC=C(c2nccn3ncc(-c4ccc(-c5cnn(CCN6CCOCC6)c5)cc4)c23)CC1` (stereo not drawn) [Compound P-0051, 4-(3-(4-(1-(2-morpholinoethyl)-1H-pyrazol-4-yl)phenyl)pyrazolo[1,5-a]pyrazin-4-yl)cyclohex-3-ene-1-carbonitrile]: the pIC50 in assay [1] and in assay [2] was 7.00 to 10.00 throughout.

Turning to `CC(C)(C#Cc1cccn2ncc(-c3ccc(-c4cnn(CC5(C#N)CC5)c4)cc3)c12)C(N)=O` [Compound P-0052, 4-(3-(4-(1-((1-cyanocyclopropyl)methyl)-1H-pyrazol-4-yl)phenyl)pyrazolo[1,5-a]pyridin-4-yl)-2,2-dimethylbut-3-ynamide], the pIC50 in assay [1] and in assay [2] was 7.00 to 10.00 throughout.
